Reference: article PMC6792352, “Limited Chemical Structural Diversity Found to Modulate Thyroid Hormone Receptor in the Tox21 Chemical Library” (Environmental Health Perspectives, 2019)
Where a name gives a salt, the structure may show the parent alone.

Assay: in vitro
Settings: rat, gh3-tre-luc cells

Row | Compound | CC50 at 24 h (AC50 (uM) modified / 1000) [µM] | further results
1 | CC[C@H]1OC(=O)[C@H](C)[C@@H](O[C@H]2C[C@@](C)(OC)[C@@H](O)[C@H](C)O2)[C@H](C)[C@@H](O[C@@H]2O[C@H](C)C[C@H](N(C)C)[C@H]2O)[C@](C)(O)C[C@@H](C)C(=O)[C@H](C)[C@@H](O)[C@]1(C)O [Erythromycin] | > 70 | 
2 | COc1ccc(C(O)(c2cncnc2)C2CC2)cc1 (stereo not shown) [Ancymidol] | > 90 | 
3 | CC[N+]1(C)CCCC1 [1-Ethyl-1-methylpyrrolidinium hexafluorophosphate] | > 90 | 
4 | O=C(NO)c1ccccc1 [N-Hydroxybenzamide] | > 90 | 
5 | O=C(Cc1cccs1)N[C@@H]1C(=O)N2C(C(=O)[O-])=C(C[n+]3ccccc3)CS[C@H]12 [Cephaloridine] | > 50 | 
6 | ClC(Cl)Cl [Chloroform] | > 90 | 
7 | CCCC1CCOC(C)S1 (stereo not shown) [2-Methyl-4-propyl-1,3-oxathiane] | > 90 | 
8 | C[C@]12C[C@H](O)[C@H]3[C@@H](CCC4=CC(=O)CC[C@@]43C)[C@@H]1CC[C@@H]2C(=O)CO [Corticosterone] | > 90 | 
9 | CC(C)OC(=O)OCOP(=O)(CO[C@H](C)Cn1cnc2c(N)ncnc21)OCOC(=O)OC(C)C [Tenofovir disoproxil fumarate] | > 50 | 
10 | Cc1c(-c2ccc(O)cc2)n(Cc2ccc(OCCN3CCCCCC3)cc2)c2ccc(O)cc12 [Bazedoxifene acetate] | 8.31 | 
11 | COc1cc(C(=O)N2CCCCCCC2)cc(OC)c1OC [Trocimine] | > 50 | 
12 | CCOc1ccc2c(c1)C(C)CC(C)(C)N2 (stereo not shown) | > 90 | 
13 | CCCCOC(=O)c1ccccc1N [Butyl anthranilate] |  | CC50 at 24 h (AC50 (uM) modified / 1000, Tox21_110001=Tox21_201173, viability, 1 nM T3 present, 24 h): > 90 µM
14 | CCNC(=O)C1CC(C)CCC1C(C)C (stereo not shown) [N-Ethyl-4-menthane-3-carboxamide] | > 90 | 
15 | CC(=O)CC(c1ccc([N+](=O)[O-])cc1)c1c(O)c2ccccc2oc1=O (stereo not shown) [Acenocoumarol] | > 20 | 
16 | CCC=C1OC(=O)c2ccccc21 [3-Propylidenephthalide] | > 90 | 
17 | CCCCCCC(=O)c1ccccc1 [Heptanophenone] | > 90 | 
18 | CCCCCCCCCCCCCCCCCCOP(=O)([O-])OC1CC[N+](C)(C)CC1 [Perifosine] | > 20 | 
19 | c1ccc2sc(SSc3nc4ccccc4s3)nc2c1 [2,2'-Dithiobisbenzothiazole] | > 50 | 
20 | CCCCCCn1cc[n+](C)c1 [1-Hexyl-3-methylimidazolium trifluoromethanesulfonate] | > 90 | 
21 | COc1cc2c(cc1OC)[C@@H](c1ccccc1)CN(C)CC2 [Trepipam maleate] | > 50 | 
22 | O=C1CCCc2c1cc1ccc3cccc4ccc2c1c34 [9,10-Dihydrobenzo[a]pyren-7(8H)-one] | > 90 | 
23 | Cc1ccccc1C#N [2-Tolunitrile] | > 90 | 
24 | C/C(C=O)=C\c1ccccc1 [2-Methylcinnamic aldehyde] | > 90 | 
25 | CN(C)C(=O)C(c1ccccc1)c1ccccc1 [Diphenamid] | > 90 | 
26 | O=c1[nH]c(=O)n(Cl)c(=O)n1Cl [Sodium dichloroisocyanurate] |  | CC50 at 24 h (AC50 (uM) modified / 1000, Tox21_110001=Tox21_112083, viability, 1 nM T3 present, 24 h): > 50 µM; CC50 at 24 h (AC50 (uM) modified / 1000, Tox21_110001=Tox21_201601, viability, 1 nM T3 present, 24 h): > 90 µM

Row | Compound | CC50 at 24 h (AC50 (uM) modified / 1000) [µM] | further results
27 | CCCCCCCCCCCC [Dodecane] | > 90 | 
28 | CC(=O)OC(C)(C)Cc1ccccc1 [Dimethylbenzylcarbinyl acetate] | > 90 | 
29 | O=C(c1ccccc1)c1cc(Cl)ccc1O [(5-Chloro-2-hydroxyphenyl)phenylmethanone] | > 90 | 
30 | CCC(=O)[C@@]1(C)[C@H](C)C[C@H]2[C@@H]3CCC4=CC(=O)C=C[C@]4(C)[C@H]3[C@@H](O)C[C@@]21C [Rimexolone] | > 20 | 
31 | CC(Oc1ccccc1)C(=O)N[C@@H]1C(=O)N2[C@@H]1SC(C)(C)[C@@H]2C(=O)O (stereo partly shown) [Phenethicillin potassium] | > 20 | 
32 | Clc1nnc(Cl)c2ccccc12 [1,4-Dichlorophthalazine] | > 90 | 
33 | C[C@H]1O[C@@H](n2cc(F)c(=O)[nH]c2=O)[C@H](O)[C@@H]1O [Doxifluridine] | > 50 | 
34 | CCOC(=O)[C@H](CS)NCCN[C@@H](CS)C(=O)OCC [Bicisate dihydrochloride] | > 50 | 
35 | CC12CC1(C)C(=O)N(c1cc(Cl)cc(Cl)c1)C2=O (stereo not shown) [Procymidone] | > 90 | 
36 | Clc1ccc(Sc2cc(Cl)c(Cl)cc2Cl)cc1 [Tetrasul] | > 90 | 
37 | Cc1cc(N)no1 [5-Methyl-3-isoxazolamine] | > 100 | 
38 | OCCN1CCN(CCCN2c3ccccc3Sc3ccc(C(F)(F)F)cc32)CC1 [Fluphenazine] | 5.76 | 
39 | COc1cc(CC(C)N)cc2c1OCO2 (stereo not shown) [1-(7-Methoxy-1,3-benzodioxol-5-yl)propan-2-amine hydrochloride] |  | CC50 at 24 h (AC50 (uM) modified / 1000, Tox21_110001=Tox21_112842, viability, 1 nM T3 present, 24 h): > 100 µM
40 | C[C@@H]1[C@H](O)[C@@H](C)/C=C/C=C/CC/C=C/C=C/C=C/C=C/[C@H](O[C@@H]2O[C@H](C)[C@@H](O)[C@H](N)[C@@H]2O)C[C@@H]2O[C@](O)(C[C@@H](O)[C@H](O)CC[C@@H](O)C[C@@H](O)C[C@@H](O)CC(=O)O[C@H]1C)C[C@H](O)[C@H]2C(=O)O [Nystatin] | > 50 | 
41 | OCCCCCCCCCCCCBr [12-Bromo-1-dodecanol] | > 90 | 
42 | CN1CC(O)C2=C/C(=N/NC(N)=O)C(=O)C=C21 (stereo not shown) [Carbazochrome] | > 50 | 
43 | CN1CCN2c3ncccc3Cc3ccccc3C2C1 (stereo not shown) [Mirtazapine] | > 50 | 
44 | NC(N)=Nc1nc(CSCCC(N)=NS(N)(=O)=O)cs1 [Famotidine] | > 90 | 
45 | CCN(CC)S(=O)(=O)c1ccc(C(=O)O)cc1 [Ethebenecid] | > 50 | 
46 | Cc1ccc(C(N)=O)cc1N [3-Amino-4-methylbenzamide] | > 90 | 
47 | CC1(C)C(C=C(Cl)Cl)[C@@H]1C(=O)O[C@@H](C#N)c1ccc(F)c(Oc2ccccc2)c1 (stereo partly shown) [Cyfluthrin] | > 90 | 
48 | Cc1cccc(C)c1NC(=O)c1ccccc1C(=O)O [Ftaxilide] | > 50 | 
49 | O=c1n(Cl)c(=O)n(Cl)c(=O)n1Cl [Symclosene] |  | CC50 at 24 h (AC50 (uM) modified / 1000, Tox21_110001=Tox21_112103, viability, 1 nM T3 present, 24 h): > 50 µM; CC50 at 24 h (AC50 (uM) modified / 1000, Tox21_110001=Tox21_300858, viability, 1 nM T3 present, 24 h): > 90 µM
50 | CC(C)CCOC(=O)CC(C)C [3-Methylbutyl 3-methylbutanoate] | > 90 | 
51 | O=C1c2ccccc2C(=O)c2c1ccc(O)c2O [Alizarin] | > 50 | 
52 | CC(C(=O)O)c1ccc2c(c1)Cc1cccnc1O2 (stereo not shown) [Pranoprofen] | > 50 | 

Row | Compound | CC50 at 24 h (AC50 (uM) modified / 1000) [µM] | further results
53 | O=[N+]([O-])c1ccc(O)cc1C(F)(F)F [3-Trifluoromethyl-4-nitrophenol] | 41.4 | 
54 | CCOc1cc(OCC)c(C(C)=O)cc1OCC [2,4,5-Triethoxyacetophenone] | 35.3 | 
55 | c1cc2c(c(N3CCNCC3)c1)OCCO2 [Eltoprazine hydrochloride] |  | CC50 at 24 h (AC50 (uM) modified / 1000, Tox21_110001=Tox21_111742, viability, 1 nM T3 present, 24 h): > 50 µM
56 | CC[C@]1(O)C[C@H]2CN(CCc3c([nH]c4ccccc34)[C@@](C(=O)OC)(c3cc4c(cc3OC)N(C)[C@H]3[C@@](O)(C(N)=O)[C@H](O)[C@]5(CC)C=CCN6CC[C@]43[C@@H]65)C2)C1 [Vindesine sulfate salt] | 0.425 | 
57 | CC(C)N(C(=O)SC/C(Cl)=C/Cl)C(C)C [Diallate] |  | CC50 at 24 h (AC50 (uM) modified / 1000, Tox21_110001=Tox21_200642, viability, 1 nM T3 present, 24 h): 92.9 µM
58 | O=C(O)c1ccc(OCCn2ccnc2)cc1 [Dazoxiben] | > 50 | 
59 | C[C@H](N)C(=O)c1ccccc1 [(-)- (S)-Cathinone hydrochloride] | > 50 | 
60 | CC(C1CC1)C(O)(Cn1cncn1)c1ccc(Cl)cc1 (stereo not shown) [Cyproconazole] | > 90 | 
61 | [O-][N+](=Nc1ccccc1)c1ccccc1 [Azoxybenzene] | > 90 | 
62 | CCC(C)NC(N)=O (stereo not shown) [sec-Butylurea] | > 90 | 
63 | CCCCOC(=O)c1ccccc1C(=O)O [Monobutyl phthalate] | > 90 | 
64 | CC(C)CC(=O)CC(C)C [Diisobutyl ketone] | > 90 | 
65 | CC(C(=O)O)c1cccc(Oc2ccccc2)c1 (stereo not shown) [Fenoprofen calcium salt dihydrate] | > 20 | 
66 | Cc1occc1S [2-Methyl-3-furanthiol] | > 90 | 
67 | CCN1CCCC1CNC(=O)c1cc(S(=O)(=O)CC)c(N)cc1OC (stereo not shown) [Amisulpride] | > 50 | 
68 | CC(=O)Nc1ccc(S(=O)(=O)Nc2ccc([N+](=O)[O-])cc2)cc1 [Sulfanitran] | > 50 | 
69 | O=S(=O)(O)OC[C@H]1O[C@@](COS(=O)(=O)O)(O[C@H]2O[C@H](COS(=O)(=O)O)[C@@H](OS(=O)(=O)O)[C@H](OS(=O)(=O)O)[C@H]2OS(=O)(=O)O)[C@@H](OS(=O)(=O)O)[C@@H]1OS(=O)(=O)O [Sucrose octasulfate, sodium salt] | > 50 | 
70 | CCN=C1C=CC(=C(c2ccc(N(CC)CC)cc2)c2ccc(N(CC)CC)cc2)c2ccccc21 [Basic Blue 7] | 0.714 | 
71 | CN(C)C(=O)CNC(=O)Cc1ccccc1 [N,N-Dimethyl-2-(2-phenylacetamido)acetamide] | > 50 | 
72 | O=C(O)CN(CCOCCOCCN(CC(=O)O)CC(=O)O)CC(=O)O [Egtazic Acid] | > 50 | 
73 | NC(=O)c1ccccc1N [2-Aminobenzamide] | > 90 | 
74 | O=C1c2ccccc2C(=O)c2cc(S(=O)(=O)O)ccc21 [Sodium 9,10-dioxo-9,10-dihydroanthracene-2-sulfonate] | > 90 | 
75 | Nc1ccc(S(=O)(=O)Nc2ccccc2)cc1 [Sulfabenz] | > 50 | 
76 | CC(C)(C)NCC(O)c1cc(O)cc(O)c1 (stereo not shown) [Terbutaline hemisulfate] | > 50 | 
77 | OCCCc1ccccc1 [3-Phenyl-1-propanol] | > 50 | 
